According to US5364631A, “Tocopherol-based pharmaceutical systems” (The Liposome Company, Inc., priority 1993, dated 1994):
One block for each compound: values may come before it.

Columns and labels:
[1] = freeze fracture electron microscopy / appearance of THS bilayers, effect of pH; assay type: physicochemical
Procedure: Characterizing the pH-dependent polymorphic nature of the THS is of importance in designing drug delivery systems comprising THS.
An aliquot (0.1-0.3 ul) of the 10% THS vesicle specimen was sandwiched between a pair of Balzers (Nashua, NH) copper support plates and rapidly plunged from 23° C. into liquid propane. Samples were fractured and replicated on a double replicating device in a Balzers freeze-fracture unit at a vacuum of 2×10^-6 mbar or better and at -115° C. Replicas were floated off in 3N HNO3, followed by washing in a graded series of Chlorox solutions. These were finally cleaned in distilled water and picked up on 300 Hex mesh copper grids (Polysciences, PA). Replicas were viewed on a Philips 300 electron microscope at a magnification of 22,000 times.

[2] = cited from earlier work
[3] = stabilization of THS into the bilayer phase at acidic pH (detergent/surfactant screening)
Text: Stabilizers are defined as compounds which allow the formation and/or maintenance of the bilayer state of d-alpha-tocopherol acid succinate based liposomes in an acidic pH environment.

[4] = cited from earlier work; remark: listed apart in the source

Compound: Cc1c(C)c2c(c(C)c1OC(=O)CCC(=O)O)CC[C@@](C)(CCC[C@H](C)CCC[C@H](C)CCCC(C)C)O2 [THS, d-alpha-tocopherol acid succinate]
precipitation upon lowering the pH ([1]; lowered pH, no stabilizer): precipitates resembling hexII phase lipid are formed
vesicle morphology by freeze fracture electron microscopy ([1]; pH 7.0): heterogenous population of multilamellar and unilamellar vesicles
pH range in which aqueous suspensions are in the bilayer phase ([2]; aqueous suspension): 6.0-9.0 pH
phase formed on lowering the pH below about 6.0 or introducing divalent cations ([2]; pH below about 6.0 or Mg++ or Ca++): produces vesicle aggregation and fusion, and induces hexagonal phase (hexII) formation

stabilization of THS into the bilayer phase [3]: do not stabilize the preparations
Compound: CCCCCCCCCCCCCCCCCC(=O)OCC(O)CO (centres unmarked) [glycerol monostearate]

Compound: CC[C@@H]1C(=O)OC[C@@H]1Cc1cncn1C [pilocarpine]
chemical stability at high pH ([4]; high pH, base-catalyzed hydrolysis): unstable at high pH
chemical stability at lower pH ([4]; lower pH (protonated)): more stable
chemical stability in pilocarpine and THS mixtures ([4]; pH values around 7.0): chemically unstable

Compound: Cc1c(C)c2c(c(C)c1OC(=O)CCC(=O)O)CCC(C)(CCCC(C)CCCC(C)CCCC(C)C)O2 (centres unmarked) [t-THS, tris(hydroxymethyl)aminomethane)-tocopherol hemisuccinate]
trapping efficiency of closed multilamellar vesicles ([2]; physiological pH): high trapping efficiencies

stabilization of THS into the bilayer phase [3]: do not stabilize the preparations
Compound: sorbitan monolaurate

stabilization of THS into the bilayer phase [3]: do not stabilize the preparations
Compound: sorbitan monopalmitate
